How the values were obtained:
A549 = assay: Antiproliferative activity against human A549 cells assessed as cell growth inhibition measured after 24 hrs by MTT assay; assay type: functional, cell-based; settings: A549, 24 h
[1] = molecular target: T1, Interleukin-6 receptor subunit beta (Homo sapiens) (UniProt P40189); assay: Binding affinity to immobilized GP130 (unknown origin) assessed as response unit at 20 uM by SPR analysis
T1 sequence (whole entry): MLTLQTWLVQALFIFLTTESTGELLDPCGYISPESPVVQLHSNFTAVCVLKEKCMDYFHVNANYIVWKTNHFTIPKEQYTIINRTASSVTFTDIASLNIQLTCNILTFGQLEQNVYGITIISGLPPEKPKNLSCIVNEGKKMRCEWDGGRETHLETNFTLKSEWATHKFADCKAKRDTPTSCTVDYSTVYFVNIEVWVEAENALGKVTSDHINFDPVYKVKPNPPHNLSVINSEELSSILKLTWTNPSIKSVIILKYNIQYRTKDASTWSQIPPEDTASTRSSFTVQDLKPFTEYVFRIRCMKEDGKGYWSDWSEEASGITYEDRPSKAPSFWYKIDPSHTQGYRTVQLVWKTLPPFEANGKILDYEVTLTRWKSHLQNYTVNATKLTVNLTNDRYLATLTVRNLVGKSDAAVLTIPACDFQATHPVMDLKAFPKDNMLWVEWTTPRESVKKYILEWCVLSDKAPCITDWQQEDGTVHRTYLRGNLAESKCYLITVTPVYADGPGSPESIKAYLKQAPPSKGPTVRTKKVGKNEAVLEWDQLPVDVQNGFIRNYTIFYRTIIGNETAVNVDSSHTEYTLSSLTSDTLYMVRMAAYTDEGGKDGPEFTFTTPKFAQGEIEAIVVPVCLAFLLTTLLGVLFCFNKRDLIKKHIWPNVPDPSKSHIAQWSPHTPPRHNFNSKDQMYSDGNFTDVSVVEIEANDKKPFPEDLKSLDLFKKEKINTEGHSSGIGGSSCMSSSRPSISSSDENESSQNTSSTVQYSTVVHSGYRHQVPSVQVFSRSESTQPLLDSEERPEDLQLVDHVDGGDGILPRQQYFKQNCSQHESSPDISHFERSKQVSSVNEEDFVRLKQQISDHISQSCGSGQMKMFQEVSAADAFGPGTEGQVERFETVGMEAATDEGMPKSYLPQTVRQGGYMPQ

SMILES | IC50 (A549) | Activity [1]
COc1ccc(C2=NN(C(N)=O)C(c3cn(Cc4ccc(OCCN5CCCCC5)cc4)c4ccc(OC)cc34)C2)cc1 (stereo not given) | 14.4 µM | 28.8 RU
NC(=O)N1N=C(c2ccc(Br)cc2)CC1c1cn(Cc2ccc(OCCN3CCCCC3)cc2)c2ccc(Br)cc12 (stereo not given) | 6.73 µM | 47.3 RU
CN(C)CCOc1ccc(Cn2cc(C3CC(c4ccc(C(F)(F)F)cc4)=NN3C(N)=O)c3cc(Br)ccc32)cc1 (stereo not given) | 6.21 µM | 22.7 RU
COc1ccccc1C1=NN(C(N)=O)C(c2cn(Cc3ccc(OCCN4CCCCC4)cc3)c3ccc(Br)cc23)C1 (stereo not given) | 6.98 µM | 36.4 RU
COc1cc(C2=NN(C(N)=O)C(c3cn(Cc4ccc(OCCN5CCCCC5)cc4)c4ccccc34)C2)cc(OC)c1OC (stereo not given) | 11.8 µM | 21.7 RU
COc1ccc(C2=NN(C(N)=O)C(c3cn(Cc4ccc(OCCN5CCCCC5)cc4)c4ccccc34)C2)cc1 (stereo not given) | 12.7 µM | 33.3 RU
CCCCCCCOc1ccc(Cn2cc(C3CC(c4ccc(C(F)(F)F)cc4)=NN3C(N)=O)c3cc(Br)ccc32)cc1 (stereo not given) | > 50 µM | 0.6 RU
NC(=O)N1N=C(c2ccc(C(F)(F)F)cc2)CC1c1cn(Cc2ccc(OCCN3CCOCC3)cc2)c2ccc(Br)cc12 (stereo not given) | 9.44 µM | 8.2 RU
NC(=O)N1N=C(c2cccc(Cl)c2)CC1c1cn(Cc2ccc(OCCN3CCCCC3)cc2)c2ccc(Br)cc12 (stereo not given) | 5.9 µM | 27.4 RU
COc1cccc(C2=NN(C(N)=O)C(c3cn(Cc4ccc(OCCN5CCCCC5)cc4)c4ccc(Br)cc34)C2)c1 (stereo not given) | 6.23 µM | 19.6 RU
COc1ccc2c(c1)c(C1CC(c3ccc(C(F)(F)F)cc3)=NN1C(N)=O)cn2Cc1ccc(OCCN2CCCCC2)cc1 (stereo not given) | 6.18 µM | 10.4 RU
NC(=O)N1N=C(c2ccc(F)cc2)CC1c1cn(Cc2ccc(OCCN3CCCCC3)cc2)c2ccc(Br)cc12 (stereo not given) | 6.8 µM | 19.9 RU
NC(=O)N1N=C(c2ccc(C(F)(F)F)cc2)CC1c1cn(Cc2ccc(OCCN3CCCCC3)cc2)c2ccc(Br)cc12 (stereo not given) | 4.69 µM | 19.9 RU
NC(=O)N1N=C(c2ccc(F)cc2)CC1c1cn(Cc2ccc(OCCN3CCCCC3)cc2)c2ccccc12 (stereo not given) | 7.44 µM | 21 RU
NC(=O)N1N=C(c2ccc(C(F)(F)F)cc2)C[C@H]1c1cn(Cc2ccc(OCCN3CCCCCC3)cc2)c2ccc(Br)cc12 | 3.04 µM | 37.4 RU
NC(=O)N1N=C(c2ccc(C(F)(F)F)cc2)CC1c1cn(Cc2ccc(OCCN3CCCCC3)cc2)c2ccccc12 (stereo not given) | 5.6 µM | 8.2 RU
NC(=O)N1N=C(c2ccc(Cl)cc2)CC1c1cn(Cc2ccc(OCCN3CCCCC3)cc2)c2ccc(Br)cc12 (stereo not given) | 5.41 µM | 29.2 RU
NC(=O)N1N=C(c2cccc(C(F)(F)F)c2)CC1c1cn(Cc2ccc(OCCN3CCCCC3)cc2)c2ccc(Br)cc12 (stereo not given) | 5.42 µM | 10.2 RU
COc1ccc2c(c1)c(C1CC(c3cc(OC)c(OC)c(OC)c3)=NN1C(N)=O)cn2Cc1ccc(OCCN2CCCCC2)cc1 (stereo not given) | 12.2 µM | 16.2 RU
COc1ccc(C2=NN(C(N)=O)C(c3cn(Cc4ccc(OCCN5CCCCC5)cc4)c4ccc(Br)cc34)C2)cc1 (stereo not given) | 5.9 µM | 26.2 RU
COc1cc(C2=NN(C(N)=O)C(c3cn(Cc4ccc(OCCN5CCCCC5)cc4)c4ccc(Br)cc34)C2)cc(OC)c1OC (stereo not given) | 6.96 µM | 32.7 RU
NC(=O)N1N=C(c2ccc(C(F)(F)F)cc2)C[C@@H]1c1cn(Cc2ccc(OCCN3CCCCCC3)cc2)c2ccc(Br)cc12 | 6.16 µM | 24.2 RU
COc1ccc2c(c1)c(C1CC(c3ccc(F)cc3)=NN1C(N)=O)cn2Cc1ccc(OCCN2CCCCC2)cc1 (stereo not given) | 9.47 µM | 10.9 RU
NC(=O)N1N=C(c2ccc(C(F)(F)F)cc2)CC1c1cn(Cc2ccc(OCCC3CCNCC3)cc2)c2ccc(Br)cc12 (stereo not given) | 4.62 µM | 35 RU
COc1ccc(C2=NN(C(N)=O)C(c3cn(Cc4ccc(OCCN5CCCCC5)cc4)c4ccc(Br)cc34)C2)cc1OC (stereo not given) | 7.43 µM | 30.1 RU
